From US20110159479A1, “GENETIC POLYMORPHISMS IN THE CYTOCHROME P450 GENE WITH CLOPIDOGREL RESISTANCE” (Industry-University Cooperation Foundation Yonsei University, priority 2009, published 2011)

Assays:
[1] = VerifyNow P2Y12 platelet-function assay in CAD patients with drug-eluting stents on clopidogrel; assay type: in vivo, human
Text: (§1) From October 2006 to July 2007, 450 consecutive patients who underwent successful percutaneous coronary intervention (PCI) with drug-eluting stents (DES) were randomly assigned to treatment with dual anti-platelet regimens (aspirin plus clopidogrel, n=225) or triple antiplatelet regimens (aspirin plus clopidogrel plus cilostazol, n=225). Inclusion criteria were: symptomatic coronary artery disease (CAD) or documented myocardial ischemia (by treadmill exercise testing or sestamibi scan); angiographic evidence of 50% diameter stenosis and post procedure Thromobolysis In Myocardial Infarction (TIMI) flow grade 3. Exclusion criteria were: contraindication to antiplatelet agents; previous allergy or intolerance of aspirin or clopidogrel; treatment with warfarin; active bleeding; known platelet dysfunction; abnormal platelet count (<100,000/mm^3). Patients received a 300 mg loading dose of clopidogrel at least 12 hours before the stenting. Stents were deployed according to standard techniques. The maintenance dose for each antiplatelet agent was 100 mg once a day for aspirin, 75 mg once a day for clopidogrel, and 100 mg twice a day for cilostazol. Among the enrolled patients, 387 patients were analyzed for clopidogrel resistance by VerifyNow P2Y12 system (Accumetrics, San Diego, Calif.), and blood sampling for genetic analysis.
(§2) The VerifyNow P2Y12 system is a rapid platelet-function, cartridge based assay designed to directly measure the effects of clopidogrel on the P2Y12 receptor. Results are expressed as P2Y12 reaction units (PRUs) and percentage inhibition. PRU reports the amount of P2Y12 receptor mediated aggregation.
(§3) Values were expressed as mean±SD. Chi-square test for goodness of fit was used to verify agreement with Hardy-Weinberg equilibrium (HWE) using Fisher's exact test. Comparison of discrete variables was performed using the Chi-square test analysis or Fisher's exact test. Comparison of continuous variables between the two study groups was performed using the Student's t-test. Multivariate logistic regression analysis was performed to determine the independent association of CYP gene polymorphisms with clopidogrel resistance. Odds ratios (ORs) were calculated with 95% confidence intervals (CIs) for the relative risk of clopidogrel resistance related to genotypes. Statistical analysis was performed with SPSS 15.0 (SPSS Inc, Chicago, Ill.). All values of P<0.05 were considered statistically significant.

[2] = patients following coronary stenting; previous reports; cited from earlier work
[3] = target: T1, P2Y12 receptor (Homo sapiens, UniProt Q9H244); assay: VerifyNow P2Y12 platelet-function assay in CAD patients with drug-eluting stents on clopidogrel; assay type: in vivo; settings: for % inhibition of platelet activity: mean ± SD; for Rate of clopidogrel resistance: subjects with CYP2C19*3 A allele
T1 construct: PRU reports the amount of P2Y12 receptor mediated aggregation; from tissue; host or cells: platelets in blood of patients (VerifyNow P2Y12 system, Accumetrics)
Text: as §1, §2, §3

T1 sequence (Q9H244 whole entry): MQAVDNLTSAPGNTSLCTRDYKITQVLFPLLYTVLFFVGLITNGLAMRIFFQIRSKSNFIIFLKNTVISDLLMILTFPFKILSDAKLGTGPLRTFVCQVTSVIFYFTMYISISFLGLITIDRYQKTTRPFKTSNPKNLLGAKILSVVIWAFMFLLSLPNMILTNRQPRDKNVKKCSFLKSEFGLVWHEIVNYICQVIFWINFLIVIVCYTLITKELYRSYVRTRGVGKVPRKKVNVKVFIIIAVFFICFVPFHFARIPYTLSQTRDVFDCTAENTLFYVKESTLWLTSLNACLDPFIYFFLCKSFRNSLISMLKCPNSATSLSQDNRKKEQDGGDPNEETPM

For `O=C1CCc2cc(OCCCCc3nnnn3C3CCCCC3)ccc2N1` [Cilostazol], which “Patients on cilostazol, number (percentage of group)” value ([1]; clopidogrel resistant group (Resistance)) is on record?
The value was 32 (28.6%).

What about the “Patients on cilostazol, number (percentage of group)” value ([1]; clopidogrel responsive group (No resistance)) of the same compound?
The value was 158 (57.5%).

Which results are given for `COC(=O)[C@H](c1ccccc1Cl)N1CCc2sccc2C1` [clopidogrel, (+)-(S)-methyl 2-(2-chlorophenyl)-2-(6,7-dihydrothieno[3,2-c]pyridin-5(4H)-yl)acetate]?
Prevalence of clopidogrel nonresponsiveness [2]: 5-44%; Clopidogrel resistance (percent inhibition <20%), proportion of patients ([3]; 387 CAD patients with DES insertion, 112 patients): 28.9%; % inhibition of platelet activity ([3]; CYP1A1 rs1048943, codominant, genotype AA (211)): 32.5 ± 22.3%; % inhibition of platelet activity ([3]; CYP1A1 rs1048943, codominant, genotype AG (153)): 37.7 ± 24.2%; % inhibition of platelet activity ([3]; CYP1A1 rs1048943, codominant, genotype GG (20)): 38.7 ± 24.4%; % inhibition of platelet activity ([3]; CYP1A1 rs1048943, dominant, genotype AA (210)): 32.5 ± 22.3%; % inhibition of platelet activity ([3]; CYP1A1 rs1048943, dominant, genotype AG/GG (170)): 37.8 ± 24.2%; % inhibition of platelet activity ([3]; CYP1A1 rs1048943, recessive, genotype AA/AG (361)): 34.7 ± 23.2%; % inhibition of platelet activity ([3]; CYP1A1 rs1048943, recessive, genotype GG (19)): 38.7 ± 24.4%; % inhibition of platelet activity ([3]; CYP2C19*2 rs4244285, codominant, genotype AA (39)): 30.9 ± 21.7%; % inhibition of platelet activity ([3]; CYP2C19*2 rs4244285, codominant, genotype GA (133)): 32.5 ± 21.6%; % inhibition of platelet activity ([3]; CYP2C19*2 rs4244285, codominant, genotype GG (210)): 37.2 ± 24.5%; % inhibition of platelet activity ([3]; CYP2C19*2 rs4244285, dominant, genotype GA/AA (172)): 32.1 ± 21.6%; % inhibition of platelet activity ([3]; CYP2C19*2 rs4244285, dominant, genotype GG (210)): 37.2 ± 24.5%; % inhibition of platelet activity ([3]; CYP2C19*2 rs4244285, recessive, genotype AA (39)): 30.9 ± 21.7%; % inhibition of platelet activity ([3]; CYP2C19*2 rs4244285, recessive, genotype GG/GA (343)): 35.3 ± 23.5%; % inhibition of platelet activity ([3]; CYP2C19*3 rs4986893, codominant, genotype AA (2)): 17.0 ± 24.0%; % inhibition of platelet activity ([3]; CYP2C19*3 rs4986893, codominant, genotype GA (68)): 24.9 ± 20.1%; % inhibition of platelet activity ([3]; CYP2C19*3 rs4986893, codominant, genotype GG (316)): 36.9 ± 23.4%; % inhibition of platelet activity ([3]; CYP2C19*3 rs4986893, dominant, genotype GA/AA (70)): 24.6 ± 20.0%; % inhibition of platelet activity ([3]; CYP2C19*3 rs4986893, dominant, genotype GG (316)): 36.9 ± 23.4%; % inhibition of platelet activity ([3]; CYP2C19*3 rs4986893, recessive, genotype AA (2)): 17.0 ± 24.0%; % inhibition of platelet activity ([3]; CYP2C19*3 rs4986893, recessive, genotype GG/GA (384)): 34.8 ± 23.3%; Rate of clopidogrel resistance ([3]; dual regimen therapy (aspirin plus clopidogrel)): 57.6%; Rate of clopidogrel resistance ([3]; triple regimen therapy (aspirin plus clopidogrel plus cilostazol)): 37.1%
